Literature values in patent US11389398B2, “Gastroretentive treatment of nocturnal symptoms and morning akinesia in subjects with parkinson's disease” (priority 2019, dated 2022).
Read-outs that look alike come from different tables or passages of the source.

## N[C@@H](Cc1ccc(O)c(O)c1)C(=O)O [levodopa, 3-hydroxy-L-Tyrosine]
Controlled release tablets (Contin 1998)
  delay in the identification of circulating plasma levodopa levels after meals: 30 to 75 min
Immediate release tablets (Baruzzi 1987)
  delay in the identification of circulating plasma levodopa levels after meals: 29 to 60 min
